These results are taken from article PMC9947563, “Identification of the molecular determinants of antagonist potency in the allosteric binding pocket of human P2X4” (Frontiers in Pharmacology, 2023).

The term IC50 denotes the point on the concentration scale where inhibition reaches its midpoint. The EC50 is the concentration giving half of the maximal effect.

One data set relates to injury-induced allodynia. On the set-up: method as in Matsumura et al., 2016; Ushioda et al., 2020. The conditions noted are these: ref Matsumura et al., 2016; Ushioda et al., 2020; cited from earlier work.
A further data set relates to mP2X4. The conditions noted are these: cited from earlier work.
For the next data set, the system named is hP2X4. The conditions noted are these: cited from earlier work.
The next data set has as its system rP2X4. The conditions noted are these: cited from earlier work.
The next data set deals with P2X4. On the set-up: method as in Hernandez-Olmos et al., 2012. The note with it: ref Hernandez-Olmos et al., 2012; cited from earlier work.
The conditions of data set [1]: ref Hernandez-Olmos et al., 2012; cited from earlier work.
Data set [2] concerns the target T1, rat P2X4 wild type (r4-WT) (Rattus norvegicus, UniProt P51577).
T1 construct: expressed in transfected cells; host or cells: 1321N1 astrocytoma cells, stably transfected
T1 sequence (P51577 1-388): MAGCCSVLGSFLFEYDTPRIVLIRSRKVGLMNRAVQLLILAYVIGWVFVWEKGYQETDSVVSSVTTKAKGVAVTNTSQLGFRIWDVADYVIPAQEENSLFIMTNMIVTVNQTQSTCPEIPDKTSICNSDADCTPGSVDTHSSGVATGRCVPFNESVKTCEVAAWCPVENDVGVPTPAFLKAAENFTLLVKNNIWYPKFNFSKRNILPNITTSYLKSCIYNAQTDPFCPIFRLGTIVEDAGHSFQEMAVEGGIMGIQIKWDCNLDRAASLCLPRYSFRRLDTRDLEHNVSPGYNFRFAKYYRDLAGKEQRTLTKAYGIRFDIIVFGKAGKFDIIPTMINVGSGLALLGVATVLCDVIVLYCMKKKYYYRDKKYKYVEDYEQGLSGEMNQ
In words: ATP-induced calcium influx (Fluo-4) in 1321N1 cells stably expressing rat P2X4 wild type. The format is cell-based. The note with it: 1321N1 cells, rat P2X4 WT. As for the experimental part:
(§1) 1321N1 astrocytoma cells were cultured (at 37°C, 5% CO2) in Dulbecco’s modified Eagle’s medium (DMEM/F-12 with Glutamax) supplemented with 10% foetal bovine serum (FBS) and 200 unit/mL of penicillin and streptomycin antibiotics (Fisher Scientific). Stably transfected clones were grown in DMEM/F-12 with Glutamax medium supplemented with G-418 (Geneticin®, Fisher Scientific), 600 μg/mL and 150 μg/mL during selection and maintenance, respectively. FuGene HD Transfection Reagent (Promega) was used according to the manufacturer’s protocol for the generation of stable cell line expressing h4-WT, r4-WT, h4-I312T, and r4-T312I. Each cell line was then tested for P2X4 receptor expression by Western blot and for functionality using the Ca^2+ influx assay.
(§2) Cells were plated the day before assay into poly-lysine-coated 96-well plates at 40–55,000 cells/mL. To load cells with calcium-sensitive fluorescent dye, culture medium was replaced with modified Ringer’s buffer (140 mM NaCl, 10 mM HEPES, 10 mM Glucose, 1 mM MgCl2, 1 mM CaCl2, 2.5 mM KCl, 0.5% BSA, pH = 7.4) containing 2.6 μM FLUO4-AM (Fisher Scientific) and 250 μM probenecid (Sigma), and cells were incubated for 20–30 min. Prior to assay, buffer was replaced with fresh modified Ringer’s buffer containing probenecid but not the dye. […] A Fluoroskan Ascent FL plate reader (Fisher Scientific) equipped with a solution dispenser and an appropriate filter pair (excitation: 485 nm, emission: 538 nm) was used to record 5-s baseline followed by P2X4-mediated calcium influx measurements for 20–25 s after ATP stimulation (final concentration ranging between 0.03 and 100 μM in buffered solution, pH = 7.4). The collected responses were normalized to the first data-point recorded after ATP injection.
(§3) Data processing and data analysis were carried out using Graphpad Prism version 6 for Mac. Figures are presented as Mean ± SEM. Statistical significance of any difference observed between samples was calculated through one-way ANOVA followed by Dunnett’s multiple comparisons test with a single pooled variance (control, unless otherwise specified) or, when comparing only two sets of data, using an unpaired t-test with Welch’s correction. When comparing data obtained from multiple independent experiments (N), each dataset was normalized to the mean value obtained for the vehicle control.

In data set [3] the target is T2, human P2X4 wild type (h4-WT) (Homo sapiens, UniProt Q99571).
T2 construct: expressed in transfected cells; host or cells: 1321N1 astrocytoma cells, stably transfected
T2 sequence (Q99571 1-388): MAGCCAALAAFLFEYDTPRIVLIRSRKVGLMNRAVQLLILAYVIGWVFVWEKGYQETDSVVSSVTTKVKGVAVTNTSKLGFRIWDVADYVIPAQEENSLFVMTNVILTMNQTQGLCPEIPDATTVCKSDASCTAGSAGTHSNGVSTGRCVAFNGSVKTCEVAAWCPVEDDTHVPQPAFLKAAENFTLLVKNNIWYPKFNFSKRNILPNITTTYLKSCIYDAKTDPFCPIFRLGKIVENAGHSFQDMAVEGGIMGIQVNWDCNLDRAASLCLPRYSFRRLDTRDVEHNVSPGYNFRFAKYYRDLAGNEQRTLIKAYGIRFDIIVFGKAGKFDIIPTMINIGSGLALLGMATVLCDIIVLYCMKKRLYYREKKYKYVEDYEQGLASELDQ
In words: ATP-induced calcium influx (Fluo-4) in 1321N1 cells stably expressing human P2X4 wild type. The class given is cell-based. The conditions noted are these: 1321N1 cells, human P2X4 WT. As for the experimental part:
(§4) 1321N1 astrocytoma cells were cultured (at 37°C, 5% CO2) in Dulbecco’s modified Eagle’s medium (DMEM/F-12 with Glutamax) supplemented with 10% foetal bovine serum (FBS) and 200 unit/mL of penicillin and streptomycin antibiotics (Fisher Scientific). Stably transfected clones were grown in DMEM/F-12 with Glutamax medium supplemented with G-418 (Geneticin®, Fisher Scientific), 600 μg/mL and 150 μg/mL during selection and maintenance, respectively. […] Each cell line was then tested for P2X4 receptor expression by Western blot and for functionality using the Ca^2+ influx assay.
as §2, with “To load cells with calcium-sensitive fluorescent dye, culture medium was replaced with modified Ringer’s buffer (140 mM NaCl, 10 mM HEPES, 10 mM Glucose, 1 mM MgCl2, 1 mM CaCl2, 2.5 mM KCl, 0.5% BSA, pH = 7.4) containing 2.6 μM FLUO4-AM (Fisher Scientific) and 250 μM probenecid (Sigma), and cells were incubated for 20–30 min.” left out
(§5) Data processing and data analysis were carried out using Graphpad Prism version 6 for Mac. Figures are presented as Mean ± SEM. […] When comparing data obtained from multiple independent experiments (N), each dataset was normalized to the mean value obtained for the vehicle control.

In data set [4] the target is T3, rat P2X4 T312I (r4-T312I) (Rattus norvegicus, UniProt P51577, T312I).
T3 construct: expressed in transfected cells; host or cells: 1321N1 astrocytoma cells, stably transfected
T3 sequence (P51577 1-388 T312I): T1 sequence (P51577 1-388) with T312I
In words: ATP-induced calcium influx (Fluo-4) in 1321N1 cells stably expressing rat P2X4 T312I. The format is cell-based. The note with it: 1321N1 cells, rat P2X4 T312I.
Description: Plasmid encoding rat P2X4 (r4-WT) ([Royle et al., 2005]) was a kind gift from Ruth Murrell-Lagnado, whilst that encoding human P2X4 with a C-terminal (His)10 tag has been reported previously ([Young et al., 2008]). Plasmids containing rat P2X4 T312I (r4-T312I) and human P2X4 I312T mutants (h4-I312T) were generated using the QuikChange Lightning site-directed mutagenesis kit (Agilent) according to manufacturer’s instructions. Sequencing of the constructs and of the genomic DNA from stably transfected cells confirmed correct full coding sequences.
as §1, §2, §3

In data set [5] the target is T4, human P2X4 I312T (h4-I312T) (Homo sapiens, UniProt Q99571, I312T).
T4 construct: expressed in transfected cells; host or cells: 1321N1 astrocytoma cells, stably transfected
T4 sequence (Q99571 1-388 I312T): T2 sequence (Q99571 1-388) with I312T
Briefly: ATP-induced calcium influx (Fluo-4) in 1321N1 cells stably expressing human P2X4 I312T. The format is cell-based. The note with it: 1321N1 cells, human P2X4 I312T. How it is done:
Plasmid encoding rat P2X4 (r4-WT) ([Royle et al., 2005]) was a kind gift from Ruth Murrell-Lagnado, whilst that encoding human P2X4 with a C-terminal (His)10 tag has been reported previously ([Young et al., 2008]).
as §4
as §2, with “To load cells with calcium-sensitive fluorescent dye, culture medium was replaced with modified Ringer’s buffer (140 mM NaCl, 10 mM HEPES, 10 mM Glucose, 1 mM MgCl2, 1 mM CaCl2, 2.5 mM KCl, 0.5% BSA, pH = 7.4) containing 2.6 μM FLUO4-AM (Fisher Scientific) and 250 μM probenecid (Sigma), and cells were incubated for 20–30 min.” left out
as §5

The next data set concerns P2X1. On the set-up: method as in Tian M. et al., 2020. The conditions noted are these: ref Tian M. et al., 2020; cited from earlier work.
The test system of a further data set is P2X7. The arrangement: method as in Tian M. et al., 2020. The note with it: ref Tian M. et al., 2020; cited from earlier work.
Another data set concerns human P2X4 open channel. On the set-up: method as in Bidula et al. (2022). The note with it: ref Bidula et al. (2022); cited from earlier work.
The mark [6] stands for this setting: approximate value for the series, ref Matsumura et al., 2016, Ushioda et al., 2020, read-out: IC50 at mouse P2X4.

Substitutions are numbered along the chain they refer to. Read-outs that look alike come from different tables or passages of the source.

Take `O=C1CC(=O)N(c2cccc(-c3noc(=S)[nH]3)c2)c2ccc3ccccc3c2N1` [NP-1815-PX]: in the data set on injury-induced allodynia, the “effect in in vivo rodent model of injury-induced allodynia” value (shortened to “effect in in vivo rodent model”) is recorded as “anti-allodynic effect”. Further, the IC50 in the data set with mP2X4 (setting [6]) is about 250 nM.

In the case of `O=C(OCc1ccccc1)N1c2ccccc2Oc2ccccc21` [PSB-12054], the IC50 is 190 nM in the data set with hP2X4 (ref Hernandez-Olmost et al. (2012), read-out: hP2X4 IC50); 2100 nM in the data set with rP2X4 (ref Hernandez-Olmost et al. (2012)); 1800 nM in the data set on mP2X4 (ref Hernandez-Olmost et al. (2012), read-out: mP2X4 IC50). Further, the “potency as P2X4 antagonist (in words)” value in the data set with P2X4 is “low micromolar range”. Also, in data set [1], the “solubility (in words)” value is recorded as “partial solubility”.

Regarding `O=C1CC(=O)N(c2ccc(NS(=O)(=O)Cc3ccccc3Cl)cc2)c2ccc3ccccc3c2N1` [NP-A], the “effect in in vivo rodent model” value with injury-induced allodynia was “anti-allodynic effect”. The IC50 in the data set on mP2X4 (setting [6]) is about 250 nM.

For `Nc1ncnc2c1ncn2[C@@H]1O[C@H](COP(=O)(O)OP(=O)(O)OP(=O)(O)O)[C@@H](O)[C@H]1O` [ATP], the “ATP pEC50 (± SEM)” value in [2] is 5.770 (± 0.0507); in data set [3] it was 5.901 (± 0.0577); in data set [4] it was 6.136 (± 0.0645); in [5], 6.112 (± 0.028). The EC50 in [2] came to 1700 nM; in data set [3] it was 1260 nM; in data set [4], 730 nM; in [5] it was 770 nM. Moreover, the “Hill coefficient (ATP concentration-response)” value in [2] worked out at 1.441; in [3] it was 1.098; in [4] it was 2.475; in [5], 2.057.

As to `Cc1ccc(S(=O)(=O)N2c3ccccc3Oc3ccccc32)cc1` [PSB-12062], the “potency as P2X4 antagonist (in words)” value in the data set with P2X4 is recorded as “low micromolar range”.

For `O=C1CC(=O)N(c2ccc(NC(=O)c3ccccc3I)cc2)c2ccc3ccccc3c2N1` [NP-B], the “effect in in vivo rodent model” value with injury-induced allodynia is “anti-allodynic effect”. In addition, the IC50 in the data set on hP2X4 (ref Matsumura et al., 2016, Ushioda et al., 2020, read-out: hP2X4 IC50) was 430 nM; in the data set on mP2X4 (setting [6]) it was about 250 nM.

For the compound `O=C(Nc1cc(C(F)(F)F)cc(C(F)(F)F)c1)c1cccc(Cl)c1O` [Tian-13], the IC50 in the data set with hP2X4 (ref Tian M. et al., 2020, read-out: P2X4 IC50) was 48.8 ± 11 nM; in the data set with hP2X4 (ref Tian et al. (2020), read-out: hP2X4 IC50), 49 nM; in the data set on P2X1, 58 ± 21.9 nM; with P2X7, 177 ± 11 nM.

Regarding `O=C1CN=C(c2cccc(Br)c2)c2oc3ccccc3c2N1` [5-BDBD], the IC50 with rP2X4 (ref Abdelrahman et al. (2017)) is 3470 nM; with rP2X4 (ref Coddou et al. (2019)), 750 nM; with mP2X4 (ref Abdelrahman et al. (2017), read-out: mP2X4 IC50), 2040 nM. Besides, in the data set with human P2X4 open channel, the “capability of blocking the open channel” value is given as “not”.
